Each structure is given as a SMILES string.

One test concerns HIF-2α HIS TAG-PASB Domain. In words: HIF-2α Scintillation Proximity Assay (SPA). The conditions noted are these: compounds listed by structure and IUPAC name. It is filed as binding. The method, then: The percent inhibition was determined and IC50 values were calculated using the Dotmatics system based on the following equation: % inhibition=[(high control sample)/(high control low control)]×100.
For orientation: IC50 means the midpoint of a concentration-inhibition curve. High values mean weaker potency in that assay, low ones greater potency in that assay. `O=[N+]([O-])c1c(F)cccc1Oc1cccc(Cl)c1` [1-(3-chlorophenoxy)-3-fluoro-2-nitro-benzene] returned a 50% inhibitory concentration (IC50) of over 100 µM.
Compound `CN(C)Cc1c(S(=O)(=O)C(F)F)ccc(Oc2cc(F)cc(Cl)c2)c1Cl` [1-[2-chloro-3-(3-chloro-5-fluoro-phenoxy)-6-(difluoromethylsulfonyl)phenyl]-N,N-dimethyl-methanamine] registered an IC50 of over 100 µM.
`O=S(=O)(c1ccc(Oc2cc(F)cc(Cl)c2)c(Cl)c1CNCC1CCOC1)C(F)F` (centres unmarked) [1-[2-chloro-3-(3-chloro-5-fluoro-phenoxy)-6-(difluoromethylsulfonyl)phenyl]-N-(tetrahydrofuran-3-ylmethyl)methanamine] displayed an IC50 of over 100 µM.
On to `O=C(O)c1cc(S(=O)(=O)C(F)(F)F)ccc1Oc1cc(F)cc(Cl)c1` [2-(3-chloro-5-fluorophenoxy)-5-((trifluoromethyl)sulfonyl)benzoic acid], for which the IC50 is over 100 µM.
The compound `Cc1ccccc1Oc1ccc(S(=O)(=O)C(F)(F)F)cc1Br` [2-bromo-1-(2-methylphenoxy)-4-(trifluoromethylsulfonyl)benzene] showed a half-inhibitory concentration (IC50) of over 100 µM.
The compound `NC(=O)c1c(S(=O)(=O)C(F)F)ccc(Oc2cc(F)cc(Cl)c2)c1Br` [2-bromo-3-(3-chloro-5-fluoro-phenoxy)-6-(difluoromethylsulfonyl)benzamide] came in with an IC50 of over 100 µM.
In turn, `O=C(NO)c1c(S(=O)(=O)C(F)F)ccc(Oc2cc(F)cc(Cl)c2)c1Br` [2-bromo-3-(3-chloro-5-fluoro-phenoxy)-6-(difluoromethylsulfonyl)benzenecarbohydroxamic acid] displayed an IC50 of over 100 µM.
Turning to `O=C(O)c1c(S(=O)(=O)C(F)F)ccc(Oc2cc(F)cc(Cl)c2)c1Br` [2-bromo-3-(3-chloro-5-fluoro-phenoxy)-6-(difluoromethylsulfonyl)benzoic acid], the 50% inhibitory concentration (IC50) is over 100 µM.
`N#Cc1cccc(Oc2cc(F)cc(Cl)c2)c1Br` [2-bromo-3-(3-chloro-5-fluoro-phenoxy)benzonitrile]: the 50% inhibitory concentration (IC50) was over 100 µM.
On the same count and under the same terms, in the case of `CS(=O)(=O)c1ccc(Oc2cc(C#N)cc(Oc3ccc(S(C)(=O)=O)c4c3CC(F)(F)[C@H]4O)c2)c2c1[C@H](O)C(F)(F)C2` [3,5-bis[[(1S)-2,2-difluoro-1-hydroxy-7-methylsulfonyl-indan-4-yl]oxy]benzonitrile] it was over 100 µM; in that of `O=C(NCCO)c1c(S(=O)(=O)C(F)F)ccc(Oc2cc(F)cc(Cl)c2)c1C(F)F` [3-(3-chloro-5-fluoro-phenoxy)-2-(difluoromethyl)-6-(difluoromethylsulfonyl)-N-(2-hydroxyethyl)benzamide], over 100 µM; in that of `NS(=O)(=O)c1cccc(Oc2cc(F)cc(Cl)c2)c1[N+](=O)[O-]` [3-(3-chloro-5-fluoro-phenoxy)-2-nitro-benzenesulfonamide], over 100 µM.
Same read-out and setting: to `N#Cc1cc(F)cc(Oc2ccc(Cl)c3c2CCC3)c1` [3-(7-chloroindan-4-yl)oxy-5-fluoro-benzonitrile] belongs over 100 µM; to `O=S(=O)(c1ccc(Oc2cc(F)cc(Cl)c2)c(CC(O)CO)c1)C(F)(F)F` (centres unmarked) [3-[2-(3-chloro-5-fluoro-phenoxy)-5-(trifluoromethylsulfonyl)phenyl]propane-1,2-diol], over 100 µM; to `N#Cc1cccc(Oc2ccc(C(F)(F)F)c(Cl)c2N)c1` [3-[2-amino-3-chloro-4-(trifluoromethyl)phenoxy]benzonitrile], over 100 µM.
Take `NC(=O)c1cc(F)cc(Oc2ccc(S(=O)(=O)C(F)(F)F)cc2Br)c1` [3-[2-bromo-4-(trifluoromethylsulfonyl)phenoxy]-5-fluoro-benzamide]: the IC50 is over 100 µM.
Consider `O=C(O)c1cc(F)cc(Oc2ccc(S(=O)(=O)C(F)(F)F)cc2Br)c1` [3-[2-bromo-4-(trifluoromethylsulfonyl)phenoxy]-5-fluoro-benzoic acid], for which the IC50 was over 100 µM.
`Cc1c(Oc2cc(F)cc(C#N)c2)ccc(S(=O)(=O)C(F)(F)F)c1C(O)CO` (centres unmarked) [3-[3-(1,2-dihydroxyethyl)-2-methyl-4-(trifluoromethylsulfonyl)phenoxy]-5-fluoro-benzonitrile]: the IC50 is over 100 µM.
`N#Cc1cc(F)cc(Oc2ccc(S(=O)(=O)C(F)(F)F)c3c2C[C@@H](F)[C@@H]3N)c1` [3-[(1R,2R)-1-amino-2-fluoro-7-(trifluoromethylsulfonyl)indan-4-yl]oxy-5-fluoro-benzonitrile] gave a half-inhibitory concentration (IC50) of over 100 µM.
`N#Cc1cccc(Oc2ccc(S(=O)(=O)C(F)F)c3cccnc23)c1` [3-[[5-(difluoromethylsulfonyl)-8-quinolyl]oxy]benzonitrile] showed an IC50 of over 100 µM.
Turning to `CN(C)[S+]([O-])c1ccc(Oc2cc(F)cc(Cl)c2)c(Br)c1` (centres unmarked) [3-bromo-4-(3-chloro-5-fluoro-phenoxy)-N,N-dimethyl-benzenesulfinamide], the half-maximal inhibitory concentration (IC50) is over 100 µM.
Still for that read-out and setting: to `Cc1cc(S(C)(=O)=O)c2c(c1Oc1cc(F)cc(C#N)c1)CCC2O` (centres unmarked) [3-fluoro-5-(1-hydroxy-5-methyl-7-methylsulfonyl-indan-4-yl)oxy-benzonitrile] belongs over 100 µM; to `Cc1cc(Oc2cc(F)cc(C#N)c2)c2c(c1S(C)(=O)=O)C(O)CC2` (centres unmarked) [3-fluoro-5-(1-hydroxy-6-methyl-7-methylsulfonyl-indan-4-yl)oxy-benzonitrile], over 100 µM.
On the same count and under the same terms, in the case of `CSc1ccc(Oc2cc(F)cc(C#N)c2)c2c1C(=O)CC2` [3-fluoro-5-(7-methylsulfanyl-1-oxo-indan-4-yl)oxy-benzonitrile] it was over 100 µM; in that of `CC1Cc2c(Oc3cc(F)cc(C#N)c3)ccc(S(C)(=O)=O)c2C1=O` (centres unmarked) [3-fluoro-5-((2-methyl-7-(methylsulfonyl)-1-oxo-2,3-dihydro-1H-inden-4-yl)oxy)benzonitrile], over 100 µM.
`C[C@H]1Cc2c(Oc3cc(F)cc(C#N)c3)ccc(S(C)(=O)=O)c2[C@H]1O` [3-fluoro-5-(((1S,2S)-1-hydroxy-2-methyl-7-(methylsulfonyl)-2,3-dihydro-1H-inden-4-yl)oxy)benzonitrile] had an IC50 of over 100 µM.
On the same count and under the same terms, to `Cn1cc(Oc2ccc(S(=O)(=O)C(F)(F)F)c3c2CCC3O)cn1` (centres unmarked) [4-(1-methylpyrazol-4-yl)oxy-7-(trifluoromethylsulfonyl)indan-1-ol] belongs over 100 µM.
Turning to `CS(=O)(=O)c1ccc(Oc2cc(F)cc(F)c2)c2c1C(C#N)CC2` (centres unmarked) [4-(3,5-difluorophenoxy)-7-methylsulfonyl-indane-1-carbonitrile], the IC50 is over 100 µM.
The same measure, in the same setting: to `O=S(=O)(c1ccc(Oc2cc(F)cc(F)c2)c2c1C(O)CC2)N1CCOCC1` (centres unmarked) [4-(3,5-difluorophenoxy)-7-morpholinosulfonyl-indan-1-ol] belongs over 100 µM; to `OC1CCc2c(Oc3cc(F)cc(Cl)c3)cccc21` (centres unmarked) [4-(3-chloro-5-fluoro-phenoxy)indan-1-ol], over 100 µM.
For the compound `O=C1CCc2c(Oc3cc(F)cc(Cl)c3)cccc21` [4-(3-chloro-5-fluoro-phenoxy)indan-1-one], the IC50 was over 100 µM.
As for `O=S(=O)(c1ccc(Oc2cc(F)cc(Cl)c2)c2c1C1(CC2)OCCO1)C(F)F` [4′-(3-chloro-5-fluoro-phenoxy)-7′-(difluoromethylsulfonyl]spiro[1,3-dioxolane-2,1′-indane]], the half-maximal inhibitory concentration (IC50) was over 100 µM.
Take `CNc1c(S(=O)(=O)C(F)(F)F)ccc(Oc2cc(F)cc(Cl)c2)c1C#N` [6-(3-chloro-5-fluoro-phenoxy)-2-(methylamino)-3-(trifluoromethylsulfonyl)benzonitrile]: the half-inhibitory concentration (IC50) is over 100 µM.

The test system of the next test is 786-O-Hif-Luc cells (luciferase gene driven by multiple HIF responsive elements). As to the kind of experiment: Luciferase Assay. It is filed as cell-based. The conditions noted are these: 24 h, 786-O-Hif-Luc cells, about 24 hours; read-out: Mean Luciferease EC50. The method, then: A pool of infected cells were then selected against 2 μg/mL of puromycin (P8833, Sigma) for 10 days followed by limited dilution to select single clones.
Each concentration was tested in triplicate. After about 24 hours, luciferase activity was determined using ONE-Glo Luciferase Assay Reagent (E6110, Promega) following the manufacturer's recommended procedure. EC50 were calculated by using Dotmatics software.
As a reminder, the EC50 is the concentration giving half of the maximal effect. As to `CS(=O)(=O)c1ccc(Oc2cc(F)cc(C#N)c2)c2c1[C@H](O)C(F)(F)[C@@H]2O` [Compound 312, 3-[(1S,3R)-2,2-difluoro-1,3-dihydroxy-7-methylsulfonyl-indan-4-yl]oxy-5-fluoro-benzonitrile], the EC50 came out at 0.63 µM.
As for `CS(=O)(=O)c1ccc(Oc2cncc(C#N)c2)c2c1[C@H](O)[C@H](F)C2` [Compound 313, 5-(((1S,2R)-2-fluoro-1-hydroxy-7-(methylsulfonyl)-2,3-dihydro-1H-inden-4-yl)oxy)nicotinonitrile], the 50% effective concentration (EC50) was 1.1 µM.
Still for that read-out and setting: to `N#Cc1cncc(Oc2ccc(S(=N)(=O)C(F)(F)F)c3c2CC(F)(F)[C@H]3O)c1` (stereo partly drawn) [Compound 314, 5-(((1S)-2,2-difluoro-1-hydroxy-7-(S-(trifluoromethyl)sulfonimidoyl)-2,3-dihydro-1H-inden-4-yl)oxy)nicotinonitrile] belongs 0.15 µM; to `CS(=O)(=O)c1ccc(Oc2cncc(Br)c2)c2c1[C@H](O)C(F)(F)C2` [Compound 324, (S)-4-((5-Bromopyridin-3-yl)oxy)-2,2-difluoro-7-(methylsulfonyl)-2,3-dihydro-1H-inden-1-ol], 0.48 µM.
Still for that read-out and setting: to `N#Cc1cc(F)cc(Oc2ccc(S(N)(=O)=O)c3c2C[C@@H](F)[C@H]3O)c1` [Compound 334, (2R,3S)-7-(3-cyano-5-fluoro-phenoxy)-2-fluoro-3-hydroxy-indane-4-sulfonamide] belongs 0.22 µM; to `N#Cc1cc(F)cc(Oc2ccc(S(N)(=O)=O)c3c2[C@@H](F)[C@@H](F)[C@H]3O)c1` [Compound 336, (1R,2S,3S)-7-(3-cyano-5-fluoro-phenoxy)-1,2-difluoro-3-hydroxy-indane-4-sulfonamide], 0.067 µM.

Still in this test, the particulars now being: 24 h, read-out: Mean Luciferease EC50.
Regarding `N#Cc1cc(F)cc(Oc2ccc(S(N)(=O)=O)c3c2[C@@H](F)C(F)(F)[C@H]3O)c1` [Compound 338, (1R,3S)-7-(3-cyano-5-fluoro-phenoxy)-1,2,2-trifluoro-3-hydroxy-indane-4-sulfonamide], the half-maximal effective concentration (EC50) worked out at 0.0061 µM.
On to `N#Cc1cc(F)cc(Oc2ccc(S(N)(=O)=O)c3c2[C@H](F)C(F)(F)[C@H]3O)c1` [Compound 339, (1S,3S)-7-(3-cyano-5-fluoro-phenoxy)-1,2,2-trifluoro-3-hydroxy-indane-4-sulfonamide], for which the EC50 is 0.25 µM.

These data come from US10597366B2, “Aryl ethers and uses thereof” (Peloton Therapeutics, Inc., priority 2013, dated 2020).
